Values after ≈ are worked out from the molar mass of the structure shown. Where two headings read alike, the source gives them in different places.
Legend:
COLO357 cells = assay: Test I: apoptosis of COLO357 pancreatic cancer cells (Annexin V-FITC/PI); type: cell-based; conditions: 1 μM, 48 h
Experimental: (§1) Pancreatic cancer cell lines (COLO357, PANC-1, Capan-2, AsPc-1 cells and MiaPaCa-2 cells obtained from American Type Culture Collection; ATCC, Rockville, Md.) were treated with 1 μM 3-Cl-AHPC and compound 16 for various times. Apoptosis in cells were analyzed by flow cytometry using Annexin V-FITC binding together with propidium iodide (PI) staining (Annexin V-FITC apoptosis Detection Kit 1, BD Biosciences, San Diego, Calif.). Data acquisition was done on a FACS Calibur flow cytometer (BD) and analyzed with CellQuest software (BD Biosciences). 3-Cl-AHPC and compound 16 mediated inhibition of cell growth were determined by 3-(4,5-dimethylthiazol-2-yl)-2,5-diphenyltetrazolium bromide (MTT) assay. The cells were seeded on 96-well plates at a density of 4×10^4 cells/well in a volume of 200 μl culture medium. 1 μM AHP3 and 3-Cl-AHPC in DMSO (final concentration 0.1%) were added to the cells for various times. […] After discarding the medium, MTT precipitates were solubilized with 200 μl DMSO and the plates read on a BioTeK Synergy HT (BioTeK Instrument Inc., Vermont) at an absorbance 570 nm. […] The spheroids were stained with acridine orange/ethidium bromide staining and immediately visualized and photographed with fluorescence microscope (OLYMPUS CKX41). […] Then spheroids were visualized and photographed with a fluorescence microscope.

[1] = Test H: aqueous solubility by UV absorbance; type: physicochemical; conditions: for solubility: 22° C.
Experimental: Standard curves at the UV λmax (330, 350 and 345 nm for 3-Cl-AHPC, 18 and 16, respectively) were generated using 0.245, 0.163, 0.049 and 0.025 mM 3-Cl-AHPC and 0.380, 0.178, 0.053 and 0.027 mM 18 and 16, which were prepared from 1.0% (wt/vol) solutions of compounds in Me2SO. […] Measurements for maximum solubilities in distilled water (pH 5) and phosphate-buffered saline (PBS, pH 7.2) at 22° C. were made by UV absorbance using solutions obtained after saturation at higher temperatures, overnight incubation at 22° C., and centrifugation to remove undissolved material.

Capan-2 cells = assay: Test I: apoptosis of Capan-2 pancreatic cancer cells (Annexin V-FITC/PI); type: cell-based; conditions: 1 μM, 48 h
Experimental: as §1

TF(v-SRC) cells = assay: Annexin V-FITC binding by flow cytometry, TF(v-SRC) cells; type: cell-based; conditions: 1 μM, varying times
Experimental: FIG. 3 illustrates the induction of apoptosis and cell death as assessed using Annexin V-FITC binding together with propidium iodide (PI) staining. FFMA-AML and TF(vSRC) cells were exposed to 1 μM 3-Cl-AHPC or compound 16. A) Apoptosis in FFMA-AML and TF(vSRC) cells following 24 and 48 h ARR exposure, respectively. The plots show the distribution of classes of fluorescence intensity versus cell number. The bottom left quadrant represents live cells (both annexin V-FITC and PI negative); the bottom right quadrant represents early apoptotic cells (annexin V-FITC positive but PI negative); and the top right quadrant represents late apoptotic cells (both annexin V-FITC and PI positive). B) Percentage of early apopotic Annexin V-positive cells at the indicated times. […] (p values of <0.05, <0.01 and <0.001 respectively, as determined by the t test).
Apoptosis of cells was determined by (1) acridine orange and ethidium bromide-staining to assess cells with nuclear fragmentation and chromatin condensation as previously described (Farhana L. et al., Cancer Res. 2006; 65:4909-4917) and (2) flow cytometry assessing Annexin V-FITC binding together with propidium iodide staining (Annexin V-FITC apoptosis Detection kit 1, BD Biosciences, San Diego, Calif.). Data acquisition was done on a FACS Calibur flow cytometer (BD) and analyzed with CellQuest software. […]

O=C(O)C=Cc1ccc(-c2ccc(O)c(C34CC5CC(CC(C5)C3)C4)c2)c(Cl)c1 [Compound 3-Cl-AHPC, 4-[3-(1-adamantyl)-4-hydroxyphenyl]-3-chlorocinnamic acid, reference compound]
cells in which induction of apoptosis was noted (COLO357 cells): 80% | Solubility (μM) at 22° C. PBS (pH 7.2) ([1]; PBS pH 7.2): Not detectable | solubility ([1]; thermodynamic from solid, distilled water pH 5, read-out: Solubility (μM) at 22° C. Distilled water (pH 5)): 4.5 µM (≈ 1.84 µg/mL) | cells in which induction of apoptosis was noted (Capan-2 cells): 50% | annexin V-FITC-positive cells (TF(v-SRC) cells): progressive increase in annexin V-FITC-positive cells with time

O=C(O)/C=C/c1cnc(-c2ccc(O)c(C34CC5CC(CC(C5)C3)C4)c2)nc1 [Compound 16, (E)-3-[2-(3-(1-Adamantyl)-4-hydroxyphenyl)-5-pyrimidinyl]-2-propenoic acid]
cells in which induction of apoptosis was noted (COLO357 cells): 80% | solubility ([1]; distilled water pH 5, read-out: Solubility (μM) at 22° C. Distilled water (pH 5)): 54 µM (≈ 20.3 µg/mL) | solubility ([1]; phosphate-buffered saline, aqueous buffer, thermodynamic from solid, PBS pH 7.2, read-out: Solubility (μM) at 22° C. PBS (pH 7.2)): 440 µM (≈ 166 µg/mL) | cells in which induction of apoptosis was noted (Capan-2 cells): 50% | annexin V-FITC-positive cells (TF(v-SRC) cells): progressive increase in annexin V-FITC-positive cells with time

Source: patent US9096544B2, “Therapeutic compounds” (Wayne State University, priority 2009, dated 2015)
